The test system of experiment [1] is P. damselae subsp. damselae (DSM 7482). The format is cell-based, Photobacterium damselae subsp. damselae. As to conditions: DSM 7482, 24 h. The method, then:
(§1) The biological activity of sea bass piscidin mature peptides was studied by determining their antimicrobial properties. Synthetic piscidin peptides were based on the predicted coding sequences and were commercially produced (NZYtech, Lisbon, Portugal) with an additional C-terminal amidation (Table S3). Peptides were incubated in serial dilutions with ten bacterial strains, known to cause severe diseases in aquaculture: Photobacterium damselae subsp. piscicida (DSM 22834), P. damselae subsp. damselae (DSM 7482), Vibro anguillarum (DSM 21597), V. alginolyticus (DSM 2171), Aeromonas salmonicida subsp. salmonicida (DSM 19634), A. hydrophila subsp. hydrophila (DSM 30187), Yersinia ruckeri (DSM 18506), Edwardsiella tarda (DSM 30052), Lactococcus garviae (DSM 20684) and Streptococcus parauberis (DSM 6631). In short, 1 × 10^8 bacteria per milliliter were incubated in optimal growth conditions with the peptide in flat-bottom 96-well plates, in a final volume of 100 µL, and OD was read at 600 nm in a plate reader after 24 h of incubation. Wells with no added peptide were used as controls, and wells without bacteria were used as blanks. The minimal inhibitory concentration (MIC) was determined as the lowest concentration of piscidin that reduced 50% of bacterial growth when compared to the controls. The MICs reported correspond to representative results from two independent experiments.

The subject of experiment [2] is Vibro anguillarum (DSM 21597). It is filed as cell-based, V. anguillarum. As to conditions: DSM 21597, 24 h. The method, then:
as §1

Experiment [3] has as its system Aeromonas salmonicida subsp. salmonicida (DSM 19634). The format is cell-based. As to conditions: DSM 19634, 24 h. The procedure: as §1
Experiment [4] concerns Lactococcus garviae (DSM 20684). The format is cell-based. The conditions noted are these: DSM 20684, 24 h. The procedure:
as §1

Experiment [5] deals with Photobacterium damselae subsp. piscicida (DSM 22834). It is filed as cell-based. The conditions noted are these: DSM 22834, 24 h. The method, then: as §1
Experiment [6] concerns Streptococcus parauberis (DSM 6631). The format is cell-based. The procedure:
as §1

Experiment [7] relates to V. alginolyticus (DSM 2171). The format is cell-based. As to conditions: DSM 2171, 24 h. The method, then: as §1
The subject of experiment [8] is Yersinia ruckeri (DSM 18506). The format is cell-based. The conditions noted are these: DSM 18506, 24 h. The procedure:
as §1

Experiment [9] concerns Trypanosoma brucei brucei bloodstream forms (strain Lister 427). The experiment in a line: Antiparasitic activity (resazurin reduction, IC50). It is filed as cell-based. As to conditions: T. brucei brucei bloodstream forms; 72 h, serial dilutions up to 100 µM, 96-well, 200 µL; resazurin reduction (fluorescence 544/590 nm); non-linear regression; means ± SD, two separate experiments. The procedure:
(§2) The anti-protozoal activity of sea bass piscidins was evaluated using two parasites: Trypanosoma brucei brucei bloodstream forms (strain Lister 427) and Leishmania infantum promastigotes (strain MHOM/MA/67/ITMAP-263). Parasites were incubated in optimal growth conditions with serial dilutions of the different peptides in flat-bottom 96-well plates, in a final volume of 200 µL, during 72 h. Cell metabolic activity was measured by resazurin reduction. Briefly, 20 µL of resazurin (50 µM) were added and incubated for 4 h. The fluorescence of resorufin, resulting from resazurin reduction by metabolically active cells, was measured at λex = 544 nm and λem = 590 nm in Synergy 2 (BioTek, Winooski, Vermont, USA). Cultures with no added peptide were used as negative controls and cultures with the reference drugs, namely pentamidine (10 nM) and miltefosine (40 µM) were used as positive controls for T. brucei and L. infantum inhibition assays, respectively. Wells with culture medium were used as blanks. Anti-parasitic effect was evaluated by the determination of IC50 value (concentration required to inhibit growth in 50%) and calculated by non-linear regression analysis using GraphPad Prism version 8.1.1 for Windows (GraphPad Software, San Diego, CA, USA). The IC50 reported correspond to representative results from two independent experiments.
(In general: Resazurin is reduced to fluorescent resorufin, in cell work by metabolically active cells.)

The test system of experiment [10] is Leishmania infantum promastigotes (strain MHOM/MA/67/ITMAP-263). The format is cell-based. The conditions noted are these: 72 h. The procedure:
as §2

Where two headings read alike, the source gives them in different places. Ends that are not written are not given here.

Turning to FFHHIFRGIVHVGKTIHRLVTG-NH2 [Piscidin1], the MIC came to 15.0 ± 0.2 µM in experiment [1]; 16.3 ± 0.6 µM in [2]; 64.2 ± 2.1 µM in experiment [3]; 33.9 ± 3.8 µM in experiment [4]; 7.4 ± 1.6 µM in experiment [5]; 2.4 ± 0.8 µM in [6] (DSM 6631, 24 h). The minimal inhibitory concentration (MIC) turned out to be 34.8 ± 0.3 µM in experiment [7] and 48.4 ± 3.8 µM in experiment [8]. Besides, the IC50 is 3.88 ± 0.11 µM in experiment [9] and 5.2 ± 0.03 µM in experiment [10].

Regarding FIHHIFRGIINAGKSIGRFITG-NH2 [Piscidin4], the minimum inhibitory concentration (MIC) came to 81.3 ± 9.5 µM in experiment [1]; 48.8 ± 40.1 µM in experiment [4]; 29.1 ± 12.0 µM in [5]; 1.8 ± 1.8 µM in [6] (DSM 6631, 24 h). For the same substance, the IC50 in experiment [9] is 3.24 ± 0.16 µM; in experiment [10], 8.34 ± 0.81 µM.

As for “FLGRFFRRTQAILRGARQGWRAHKAVSRYRDRYIPETDNNQEQP-NH2 [Piscidin2]”, the MIC turned out to be 105.8 ± 22.1 µM in experiment [1]; 146.1 ± 21.4 µM in [2]; 67.7 ± 0.2 µM in experiment [3]; 9.1 ± 1.7 µM in experiment [5]; 6.9 ± 2.8 µM in [6] (DSM 6631, 24 h); 66.2 ± 2.0 µM in experiment [7]. This substance also had an MIC in experiment [8] of 137.6 ± 3.1 µM. For the same substance, the figures for the IC50 in experiment [9] and in experiment [10] were 1.74 ± 0.13 µM and 5.52 ± 0.26 µM, respectively.

For the substance “FLGRVKSMWSGVRNGYKAYKYQRNMAKMNKGYGPNWQQGGGQEPPADAQANDQPP-NH2 [Piscidin7]”, the IC50 in experiment [9] is 7.3 ± 0.32 µM; in [10], 66.77 ± 0.08 µM.

The substance “LFGSLKAWFKGGKQASRDYKYQKDMAKMNKRYGPNWQQGGGQQPPANAQANDQPPADAQANDQPS-NH2 [Piscidin6, synthetic putative mature peptide of European sea bass piscidin 6, 65 aa, MT066195]” gave an MIC in experiment [6] (S. parauberis, 1 × 10^8 bacteria/mL, 96-well, 100 µL, 24 h, OD 600 nm, serial dilutions up to 200 µM, MIC = lowest concentration that reduced 50% of bacterial growth vs controls, means ± SD, two separate experiments, N.A. = not active at the highest concentration tested) of 87.7 ± 123.0 µM. The IC50 in experiment [9] was determined as 56.5 ± 1.61 µM.

Consider “LIGSLFRGAKAIFRGARQGWRAHKAVSRYRAGYVRRPVVYYHRVYP-NH2 [Piscidin5]”, for which the minimal inhibitory concentration (MIC) came to 14.8 ± 2.0 µM in [1]; 10.1 ± 2.7 µM in experiment [2]; 47.9 ± 6.1 µM in experiment [3]; 42.3 ± 16.4 µM in experiment [4]; 3.3 ± 0.1 µM in [5]; 1.3 ± 1.2 µM in [6] (DSM 6631, 24 h). The figures for the MIC in experiment [7] and in experiment [8] were 36.9 ± 2.3 µM and 25.4 ± 1.8 µM, respectively. In addition, the results for the half-inhibitory concentration (IC50) in experiment [9] and in experiment [10] were 4.42 ± 0.12 µM and 7.24 ± 0.61 µM, respectively.

A word on the MIC: it is the lowest concentration that inhibits growth of the organism. Low readings indicate inhibition by little substance, high ones a need for much substance. By IC50 is commonly meant the concentration at which inhibition is half-maximal.

These data come from article PMC7369796, “The Diverse Piscidin Repertoire of the European Sea Bass (Dicentrarchus labrax): Molecular Characterization and Antimicrobial Activities” (International Journal of Molecular Sciences, 2020).
